Laboratory results taken from the supplement of paper PMC7840683.
± gives the standard deviation of the averaged measurements.

Test system: HepaRG
Test: LDH release cytotoxicity, % of total lysis control; higher = more cytotoxic
Conditions: 48 h
How it was run: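 Single-lot HepaRG cells in collagen I-coated 96-well plates were treated for 48 h in serum-free induction medium containing 0.5% DMSO with test chemicals in eight-point half-log series up to 100 µM. For total lysis, wells received 0.1% Triton X. LDH in 50 µL spent medium was assayed by resorufin fluorescence with CytoTox-ONE. Percent cytotoxicity was normalized to the on-plate vehicle and total lysis controls, with duplicates averaged.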

| Structure (SMILES) | LDH release cytotoxicity (0.03162 µM) [%] | LDH release cytotoxicity (0.1 µM) [%] | LDH release cytotoxicity (0.3162278 µM) [%] | LDH release cytotoxicity (1 µM) [%] | LDH release cytotoxicity (3.16228 µM) [%] | LDH release cytotoxicity (10 µM) [%] | LDH release cytotoxicity (31.6228 µM) [%] | LDH release cytotoxicity (100 µM) [%] | also measured |
| --- | --- | --- | --- | --- | --- | --- | --- | --- | --- |
| CCCCCCCCO [1-Octanol] | -0.769 ± 1 | -1.52 ± 0.36 | -0.614 ± 0.069 | -1.76 ± 0.5 | -2.15 ± 1.1 | -1.49 ± 0.68 | 1.06 ± 0.25 | 2.86 ± 2.5 | – |
| CCCCCCCCCCCCCCCO [1-Pentadecanol] | 0.0106 ± 0.14 | -0.465 ± 0.06 | 0.131 ± 0.74 | -0.574 ± 0.11 | 0.207 ± 0.55 | 0.233 ± 0.26 | 0.338 ± 0.26 | 2.58 ± 0.24 | – |
| CCCCCCCCCCCCCCO [1-Tetradecanol] | -1.1 ± 0.46 | -2.17 ± 0.9 | -0.313 ± 1 | -2.29 ± 0.65 | -2.1 ± 0.054 | -1.49 ± 0.62 | -1.69 ± 0.017 | 6.5 ± 2.2 | – |
| C=CCCCCCCCCCCCC [1-Tetradecene] | – | -3.45 ± 0.87 | – | -4.65 ± 0.72 | -3.81 ± 0.5 | -4.29 ± 0.17 | -4.23 ± 0.41 | -4.05 ± 0.7 | LDH release cytotoxicity (0.031623 µM): -1.3 ± 1.6%; LDH release cytotoxicity (0.316228 µM): -3.94 ± 1.4% |
| CCCCCCCCCCCCCO [1-Tridecanol] | -1.51 ± 0.42 | -0.843 ± 0.39 | -0.758 ± 0.15 | -0.914 ± 0.16 | -0.263 ± 1 | 0.564 ± 1.8 | 0.347 ± 1.4 | 3.78 ± 2.1 | – |
| CCCCCCCCCCCO [1-Undecanol] | – | – | – | – | – | – | – | – | LDH release cytotoxicity (0.01581 µM): -2.55 ± 0.72%; LDH release cytotoxicity (0.05 µM): -3.97 ± 0.19%; LDH release cytotoxicity (0.1581139 µM): -3.8 ± 1.3%; LDH release cytotoxicity (0.5 µM): -4.64 ± 0.28%; LDH release cytotoxicity (1.5811388 µM): -2.84 ± 0.45%; LDH release cytotoxicity (5 µM): -3.15 ± 0.031%; LDH release cytotoxicity (15.8114 µM): -2.96 ± 1.5%; LDH release cytotoxicity (50 µM): 4.08 ± 2.9% |
| CCO[Si](CCCNC(N)=O)(OCC)OCC [1-[3-(Triethoxysilyl)propyl]urea] | -1.05 ± 0.013 | -2.25 ± 0.44 | -1.8 ± 0.35 | -2.22 ± 0.071 | -2.28 ± 0.25 | -1.64 ± 0.34 | -1.55 ± 0.96 | 0.263 ± 0.38 | – |
| FC(F)(F)C(F)(F)C(F)(F)C(F)(F)C(F)(F)C(F)(F)CCI [1H,1H,2H,2H-Perfluorooctyl iodide] | -2.1 ± 0.36 | -1.68 ± 0.34 | -1.96 ± 0.36 | -2.44 ± 0.81 | -1.64 ± 0.62 | -1.16 ± 0.9 | -0.32 ± 0.46 | 1 ± 0.87 | – |
| c1nc[nH]n1 [1H-1,2,4-Triazole] | 0.679 ± 0.53 | 0.298 ± 0.72 | -1.06 ± 0.17 | -0.618 ± 0.53 | 0.566 ± 1.4 | 0.541 ± 1.2 | 1.08 ± 0.1 | 2.04 ± 1.2 | – |
| O=c1[nH]cnc2c1ncn2C1CCC(CO)O1 (configuration not stated) [2',3'-Dideoxyinosine] | -2.26 ± 0.4 | -1.91 ± 0.031 | -1.96 ± 1 | -1.29 ± 0.97 | -1.75 ± 0.0016 | -1.3 ± 0.057 | -1.11 ± 1.1 | -0.428 ± 0.43 | – |
| O=C(c1ccc(O)cc1O)c1ccc(O)cc1O [2,2',4,4'-Tetrahydroxybenzophenone] | – | -1.13 ± 1.1 | – | -1.52 ± 0.89 | -2.25 ± 0.71 | -1.76 ± 0.33 | 1.26 ± 0.54 | 35.3 ± 1.2 | LDH release cytotoxicity (0.031623 µM): -0.783 ± 0.28%; LDH release cytotoxicity (0.316228 µM): -1.37 ± 0.79% |
| NCCOCCOCCN [2,2'-[Ethane-1,2-diylbis(oxy)]diethanamine] | -0.945 ± 0.74 | -1.12 ± 0.47 | -0.214 ± 0.033 | 0.303 ± 0.8 | 2.6 ± 0.91 | 2.46 ± 0.46 | 1.93 ± 0.86 | 4 ± 0.68 | – |
| CC(C)C(=O)OCC(C)(C)C(OC(=O)C(C)C)C(C)C (configuration not stated) [2,2,4-Trimethyl-1,3-pentanediol diisobutyrate] | -1.97 ± 1.2 | -3.46 ± 0.69 | -3.48 ± 0.61 | -2.95 ± 0.15 | -3.05 ± 0.42 | -2.18 ± 0.16 | -2.05 ± 0.51 | 0.686 ± 0.88 | – |
| Oc1ccc(C(c2ccc(O)cc2)C(Cl)(Cl)Cl)cc1 [2,2-Bis(4-hydroxyphenyl)-1,1,1-trichloroethane] | – | – | – | – | – | – | – | – | LDH release cytotoxicity (0.0320971 µM): 1.05 ± 0.97%; LDH release cytotoxicity (0.1015 µM): 0.207 ± 0.19%; LDH release cytotoxicity (0.320971 µM): 0.656 ± 0.4%; LDH release cytotoxicity (1.015 µM): 1.23 ± 0.62%; LDH release cytotoxicity (3.2097118 µM): 0.563 ± 0.45%; LDH release cytotoxicity (10.15 µM): 0.192 ± 0.82%; LDH release cytotoxicity (32.0971 µM): 1.16 ± 0.45%; LDH release cytotoxicity (101.5 µM): 2.4 ± 0.33% |
| N#CC(Br)(Br)C(N)=O [2,2-Dibromo-3-nitrilopropionamide] | – | – | – | – | – | – | – | – | LDH release cytotoxicity (0.0314647 µM): -1.52 ± 0.18%; LDH release cytotoxicity (0.0995 µM): -0.658 ± 0.1%; LDH release cytotoxicity (0.3146466 µM): -0.437 ± 0.73%; LDH release cytotoxicity (0.995 µM): -0.589 ± 0.45%; LDH release cytotoxicity (3.14647 µM): 0.314 ± 0.39%; LDH release cytotoxicity (9.95 µM): 0.381 ± 0.73%; LDH release cytotoxicity (31.4647 µM): -0.137 ± 0.43%; LDH release cytotoxicity (99.5 µM): 1.42 ± 0.75% |
| Cc1ccc(C)c(O)c1C [2,3,6-Trimethylphenol] | -2.75 ± 0.2 | -1.45 ± 0.5 | -1.53 ± 0.21 | -1.64 ± 0.019 | -1.22 ± 0.35 | -0.829 ± 0.93 | -0.517 ± 0.35 | 0.375 ± 0.18 | – |
| c1ccc2occc2c1 [2,3-Benzofuran] | -0.572 ± 0.84 | -1.07 ± 0.4 | -0.829 ± 0.4 | -0.181 ± 0.71 | -1.1 ± 0.81 | 0.338 ± 0.67 | 2.32 ± 1.2 | 2.02 ± 0.38 | – |
| Cc1cccc(N)c1N [2,3-Diaminotoluene] | -0.0536 ± 0.59 | -0.722 ± 0.31 | 0.216 ± 0.21 | -0.468 ± 0.4 | -0.351 ± 0.98 | 0.016 ± 0.52 | -0.572 ± 0.99 | 0.619 ± 0.97 | – |
| Oc1cc(Cl)c(Cl)cc1Cl [2,4,5-Trichlorophenol] | -1.03 ± 1.1 | -1.29 ± 0.21 | -1.7 ± 1.3 | -1.77 ± 0.63 | -1.83 ± 0.36 | -1.75 ± 0.2 | -1.87 ± 1.3 | -0.358 ± 0.97 | – |
